This note sets out measurements from patent US20110039762A1, “TARGETED ANTIMICROBIAL MOIETIES” (C3 JIAN, INC., priority 2009, published 2011).

The term MIC denotes the least concentration at which growth counts as inhibited. Low values mean greater potency, high ones weaker potency. Broadly, the IC50 is the point on the concentration scale where inhibition reaches its midpoint. Read a high IC50 as lower potency.

The test system of series [1] is Mixed planktonic populations of P. aeruginosa, E. coli, S. epidermidis, and S. mutans. As to the kind of experiment: Microbial population shift assay. It counts as cell-based. As to conditions: 10 μM peptide, 24 h. How it is done:
Peptide (10 μM) or mock-treatment (1× PBS) was then added and samples were incubated at 37° C. for 24 h under anaerobic conditions (80% N2, 15% CO2, 5% H2). […] Plates were then incubated 37° C. under aerobic conditions (TH plates were incubated anaerobically) and colonies counted after 24 h to determine survivors. […] Gram stains and direct microscopic observation (from select isolated colonies) were undertaken to confirm species identity (data not shown). The detection limit of the assay was 200 cfu/mL.

Another series relates to panel of bacteria. As to the kind of experiment: General antimicrobial activity by MIC against a panel of bacteria. It counts as cell-based. To be noted: panel of bacteria (Table 19). The method, then: (§1) Briefly, ˜1×10^5 cfu/mL bacteria were diluted in TH (S. mutans), or Mueller-Hinton (MH) broth (all other organisms) and distributed to 96-well plates. Serially-diluted (2-fold) peptides were then added and the plates incubated at 37° C. for 18-24 h. […] All experiments were conducted 10 times.

The test system of series [2] is E. coli. In words: Post-antibiotic effect assay (growth retardation after 10 min exposure). Type of series: cell-based, Escherichia coli. As to conditions: E. coli monoculture, peptide 10 min, then fresh medium. How it is done:
(§2) The activity and selectivity of MH-STAMPs after a 10 min incubation was determined by growth retardation experiments against targeted and untargeted bacteria in monocultures, as described previously (Id.). Cells from overnight cultures were diluted to ˜5×10^6 cfu/mL in MH (or TH with 1% sucrose for S. mutans), normalized by OD600 0.05-0.1 and seeded to 96-well plates. Cultures were then grown under the appropriate conditions for 2 h (3 h for S. mutans) prior to the addition of peptides for 10 min. Plates were then centrifuged at 3000×g for 5 min, the supernatants discarded, fresh medium returned (MH or TH without sucrose for S. mutans), and incubation resumed. Bacterial growth after treatment was then monitored over time by OD600.

The test system of series [3] is P. aeruginosa. The series is described as above. It counts as cell-based, Pseudomonas aeruginosa. As to conditions: P. aeruginosa monoculture, peptide 10 min, then fresh medium. How it is done:
as §2

Series [4] has as its system E. coli. Type of series: cell-based, Escherichia coli. How it is done:
(§3) Typically, the in vitro antimicrobial activity of antimicrobial agents is tested using standard NCCLS bacterial inhibition assays, or MIC tests (see, National Committee on Clinical Laboratory Standards “Performance Standards for Antimicrobial Susceptibility Testing,” NCCLS Document M100-S5 Vol. 14, No. 16, December 1994; “Methods for dilution antimicrobial susceptibility test for bacteria that grow aerobically-Third Edition,” Approved Standard M7-A3, National Committee for Clinical Standards, Villanova, Pa.).
as §1

Series [5] relates to Klebsiella pneumoniae KAY 2026. It counts as cell-based. How it is done: (§4) Aerobic Gram-negative organisms were grown in Lauri-Bertaini (LB) broth and Gram-positive bacteria in Brain-heart infusion (BHI) broth. Streptococcus mutans JM11 (spectinomycin resistant, UA140 background) was grown in Todd-Hewitt (TH) broth under anaerobic conditions (80% N2, 15% CO2, 5% H2) at 37° C. Merritt et al. (2005) J Microbiol Meth., 61: 161-170. All bacteria were grown overnight to an OD600 of 0.8-1.0 prior to appropriate dilution and antimicrobial testing.
as §1

In series [6] the test system is Staphylococcus aureus Newmann. It counts as cell-based. How it is done:
as §4, §1

For series [7], the system named is P. aeruginosa. Type of series: cell-based, Pseudomonas aeruginosa. The method, then: as §3, §1
The subject of series [8] is S. mutans. It counts as cell-based, Streptococcus mutans.
In series [9] the test system is S. epidermidis. Type of series: cell-based, Staphylococcus epidermidis. In outline:
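~1×10^5 cfu/mL inoculum, MH broth; peptides 2-fold serial dilution; 37° C., 18-24 h; n=10; NCCLS M7-A3 method.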

Another series has as its system S. aureus. As to the kind of experiment: Post-antibiotic effect assay (growth retardation after 10 min exposure). It counts as cell-based, Staphylococcus aureus. To be noted: S. aureus monoculture, peptide 10 min, then fresh medium. The method, then:
as §2

Series [10] relates to S. epidermidis. The description is as above. Type of series: cell-based, Staphylococcus epidermidis. As to conditions: S. epidermidis monoculture, peptide 10 min, then fresh medium. How it is done:
as §2

Series [11] has as its system S. mutans. Described as above. It counts as cell-based, Streptococcus mutans. To be noted: S. mutans monoculture, peptide 10 min, then fresh medium. The method, then: as §2
Series [12] deals with BHK-21 (ATCC CRL-10) fibroblasts. As to the kind of experiment: Cytotoxicity, Promega CellTiterGlo assay. It counts as cell-based, hamster. How it is done:
Streptococcus oralis ATCC 10557, Streptococcus gordonii (Challis), Streptococcus sanguinis (NY101), Streptococcus mitis ATCC 903, Streptococcus salivarius ATCC 13419 and S. mutans wild-type UA140 and JM11 (spectinomycin-resistant) strains were grown in Todd-Hewitt (TH) broth 37° C. in an anaerobic atmosphere of 80% N2, 10% CO2, and 10% H2. BHK-21 (ATCC CRL-10) fibroblasts were propagated in DMEM with 10% FBS, 1 mM sodium pyruvate, 100 units/mL penicillin G, and 100 μg/mL streptomycin at 37° C. with 5% CO2. Cells were detached with 0.25% trypsin and subcultured as recommended by the supplier.
The effect of RB and C16-RB on […] fibroblasts was ascertained by utilizing the Promega CellTiterGlo assay, as described by the manufacturer. Briefly, fibroblasts were grown to confluence, detached, and seeded to ˜5,000 cells per well in a 96-well opaque walled, clear bottom 96-well plate (Nunc International). For long-term dark toxicity, cells were allowed to attach to for 18 h before the culture medium was replaced with medium plus serially-diluted RB or C16-RB (200 μM to 390 nM) or medium alone. After 18-24 h, equal volume Cell Titer Glo reagent was added to each well and mixed. Luciferace activity was then quantified to measure cell viability (Varian Fluorometer in Biolumenescence mode). To measure cytotoxicity after RB or C16-RB light exposure, cells were seeded at ˜10,000 cells per well and allowed to attach for 4 h. Cell growth medium was then replaced with RB or C16-RB containing medium, prior to exposure (a single well at a time) with blue light (400 mW/cm^2) suspended ˜3 cm from the well bottom. After exposure, cultures were disrupted with Cell Titer Glo and luciferase activity quantitated as above.
(In general: Cellular ATP, detected with luciferase, serves as a proxy for viable cell number.)

The subject of series [13] is mixed biofilms of S. mutans JM11 plus S. oralis, S. gordonii, S. mitis, S. sanguinis, and S. salivarius. As to the kind of experiment: Photodynamic antimicrobial assay against multispecies biofilms. As to conditions: blue light. Type of series: cell-based. How it is done:
To gauge C16-RB selectivity for S. mutans, similar assays were conducted against multispecies biofilms. Mixed biofilms were seeded by diluting (1:5000) a mixture of equal parts S. oralis, S. gordonii, S. mitis, S. sanguinis, S. salivarius, and S. mutans JM11 (made from overnight cultures) into TH with 1% sucrose, 1% glucose, and 1% mannose. Biofilms were incubated and treated as described above with the addition of vitamin C or potassium gluconate. After the addition of agent and 5 min incubation, biofilms were washed 1× with 1× PBS prior to light exposure. After PDT and biofilm disruption, survivors were plated on TH, and TH supplemented with 800 μg/mL spectinomycin, which allowed for quantitation of surviving total oral streptococci and surviving S. mutans, respectively.

For the next series, the system named is S. mutans UA140 biofilms. As to the kind of experiment: Photodynamic antimicrobial assay against single-species biofilms. It counts as cell-based, Streptococcus mutans. To be noted: 5 μM, dark controls. The method, then:
To evaluate C16-RB against monoculture biofilms, S. mutans UA140 was grown overnight in TH prior to inoculation for biofilm formation. For biofilms, 1:5000 dilution of overnight culture was made into TH with 1% sucrose in 2 mL centrifuge tubes (200 μL volume) and grown 24 h under anaerobic conditions. After incubation, biofilms were treated for 5 min with 5 or 25 μM C16-RB or 5 μM RB in 1× PBS, or PBS alone, followed by removal of supernatant and exposure to 5 min blue light (emission 400-550 nm, power 400 mW/cm^2) from an Astralis 7 (Ivoclar Vivodent, Austria) handheld LED commonly used as a dental curing light. The light source was suspended 4 cm from the tube bottom (even with the mouth of the tube). A duplicate set of samples were left covered to serve as dark controls. After treatment, biofilms were mechanically disrupted and plated to determine cfu/mL.

Converted amounts (≈) assume the structure as drawn. Peptide text beside a SMILES is read from it. A value given as a limit tells only on which side of the number the result lay.

As to `CC[C@H](C)[C@H](NC(=O)[C@@H](N)Cc1ccccc1)C(=O)N[C@@H](CCCNC(=N)N)C(=O)N[C@@H](CCCCN)C(=O)N[C@@H](Cc1ccccc1)C(=O)N[C@@H](CC(C)C)C(=O)N[C@@H](CCCCN)C(=O)N[C@@H](CCCCN)C(=O)N[C@@H](Cc1c[nH]c2ccccc12)C(=O)N[C@@H](CC(C)C)C(=O)N[C@@H](CC(C)C)C(N)=O` [BD2.20] (H-FIRKFLKKWLL-NH2; N-terminus assumed), the “recoverable (surviving) cfu/mL” value in [1] (E. coli in mixed culture), in series [1] (P. aeruginosa in mixed culture), in series [1] (S. epidermidis in mixed culture) and in series [1] (S. mutans in mixed culture) was “significant loss of recoverable cfu/mL” each time. Also, the “general antimicrobial activity by MIC” value in the series with panel of bacteria is given as “robust MICs”. Moreover, the “bacterial growth (OD600) after treatment” value is recorded as “inhibited” in the series with E. coli [2]; “robust antimicrobial activity” in the series on P. aeruginosa [3]; “inhibited” in the series with S. aureus; “inhibited” with S. epidermidis [10]; “robust antimicrobial activity” with S. mutans [11]. Further, the minimal inhibitory concentration (MIC) against E. coli [4] was 5.47 ± 1.41 µM (≈ 8.16 µg/mL); in series [5], 2.98 ± 0.47 µM (≈ 4.44 µg/mL); in [6], 5.625 ± 1.29 µM (≈ 8.39 µg/mL); with P. aeruginosa [7], 14.4 ± 4.40 µM (≈ 21.5 µg/mL); against S. mutans [8], 2.86 ± 0.60 µM (≈ 4.26 µg/mL); against S. epidermidis [9] it was 5.11 ± 1.58 µM (≈ 7.62 µg/mL).
As for `O=C1OC2(c3cc(I)c(O)c(I)c3Oc3c2cc(I)c(O)c3I)c2c(Cl)c(Cl)c(Cl)c(Cl)c21` [RB, rose bengal], in series [12] (BHK cells, blue light), the “light-dependent (photo-associated) toxicity” value is “light-dependent toxicity was observed”. In addition, the concentration for half-maximal inhibition (IC50) in series [12] (BHK, 5 min dark) is > 100 µM. Further, the “photodynamic antimicrobial activity, selectivity” value in series [13] (mixed biofilm) is reported as “strong indiscriminant photodynamic antimicrobial effects”. Further, in series [13] (plus potassium gluconate), the “ratio of surviving S. mutans:non-cariogenic streptococci cfu” value is ~1. In addition, the “decrease in cfu/mL” value in the series on S. mutans UA140 biofilms is listed as “appreciable decreases in cfu/mL were not observed”.
